For nine molecules, IC50 results are on record in the Kinase Knowledgebase extract (Sharma et al. 2016).

In general, IC50 refers to the point on the concentration scale where inhibition reaches its midpoint.

Experiment in all cases: Enzyme Assay
The target of assay [1] is PIK3CG (human) (UniProt P48736).
The target in assay [2] is PIK3CA (human) (UniProt P42336).
The target of assay [3] is PIK3CB (Human) (UniProt P42338).
Assay [4] concerns the target PIK3CD (Human) (UniProt O00329).

Sequence of PIK3CD (Human) (O00329 whole entry, looked up): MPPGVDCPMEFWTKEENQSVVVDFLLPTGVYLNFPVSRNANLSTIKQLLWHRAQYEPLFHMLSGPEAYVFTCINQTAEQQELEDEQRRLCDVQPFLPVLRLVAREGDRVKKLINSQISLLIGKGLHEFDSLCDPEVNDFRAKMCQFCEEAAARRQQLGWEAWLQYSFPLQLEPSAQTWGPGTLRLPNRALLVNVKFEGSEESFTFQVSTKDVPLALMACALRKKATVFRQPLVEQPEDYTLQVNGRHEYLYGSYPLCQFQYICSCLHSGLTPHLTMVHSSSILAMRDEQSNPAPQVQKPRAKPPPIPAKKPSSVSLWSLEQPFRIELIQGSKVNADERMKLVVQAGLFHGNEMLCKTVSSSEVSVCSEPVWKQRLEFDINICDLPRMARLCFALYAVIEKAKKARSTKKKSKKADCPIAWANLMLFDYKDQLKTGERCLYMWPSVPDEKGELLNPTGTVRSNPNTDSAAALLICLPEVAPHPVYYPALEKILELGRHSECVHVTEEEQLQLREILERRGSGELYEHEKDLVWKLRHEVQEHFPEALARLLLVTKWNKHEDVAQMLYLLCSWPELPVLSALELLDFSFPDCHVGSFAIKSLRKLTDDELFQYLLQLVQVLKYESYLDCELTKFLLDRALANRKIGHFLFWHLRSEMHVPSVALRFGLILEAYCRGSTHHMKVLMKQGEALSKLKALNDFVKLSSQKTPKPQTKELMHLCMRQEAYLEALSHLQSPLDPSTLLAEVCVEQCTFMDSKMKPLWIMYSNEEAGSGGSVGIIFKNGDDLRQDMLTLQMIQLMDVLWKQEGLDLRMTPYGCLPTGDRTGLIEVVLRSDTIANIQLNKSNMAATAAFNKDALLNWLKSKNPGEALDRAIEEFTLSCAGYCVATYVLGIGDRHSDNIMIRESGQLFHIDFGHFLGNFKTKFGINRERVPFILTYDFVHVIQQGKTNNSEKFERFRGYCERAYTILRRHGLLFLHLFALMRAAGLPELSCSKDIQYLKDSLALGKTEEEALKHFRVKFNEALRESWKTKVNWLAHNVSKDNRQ
Sequence of PIK3CB (Human) (P42338 whole entry, looked up): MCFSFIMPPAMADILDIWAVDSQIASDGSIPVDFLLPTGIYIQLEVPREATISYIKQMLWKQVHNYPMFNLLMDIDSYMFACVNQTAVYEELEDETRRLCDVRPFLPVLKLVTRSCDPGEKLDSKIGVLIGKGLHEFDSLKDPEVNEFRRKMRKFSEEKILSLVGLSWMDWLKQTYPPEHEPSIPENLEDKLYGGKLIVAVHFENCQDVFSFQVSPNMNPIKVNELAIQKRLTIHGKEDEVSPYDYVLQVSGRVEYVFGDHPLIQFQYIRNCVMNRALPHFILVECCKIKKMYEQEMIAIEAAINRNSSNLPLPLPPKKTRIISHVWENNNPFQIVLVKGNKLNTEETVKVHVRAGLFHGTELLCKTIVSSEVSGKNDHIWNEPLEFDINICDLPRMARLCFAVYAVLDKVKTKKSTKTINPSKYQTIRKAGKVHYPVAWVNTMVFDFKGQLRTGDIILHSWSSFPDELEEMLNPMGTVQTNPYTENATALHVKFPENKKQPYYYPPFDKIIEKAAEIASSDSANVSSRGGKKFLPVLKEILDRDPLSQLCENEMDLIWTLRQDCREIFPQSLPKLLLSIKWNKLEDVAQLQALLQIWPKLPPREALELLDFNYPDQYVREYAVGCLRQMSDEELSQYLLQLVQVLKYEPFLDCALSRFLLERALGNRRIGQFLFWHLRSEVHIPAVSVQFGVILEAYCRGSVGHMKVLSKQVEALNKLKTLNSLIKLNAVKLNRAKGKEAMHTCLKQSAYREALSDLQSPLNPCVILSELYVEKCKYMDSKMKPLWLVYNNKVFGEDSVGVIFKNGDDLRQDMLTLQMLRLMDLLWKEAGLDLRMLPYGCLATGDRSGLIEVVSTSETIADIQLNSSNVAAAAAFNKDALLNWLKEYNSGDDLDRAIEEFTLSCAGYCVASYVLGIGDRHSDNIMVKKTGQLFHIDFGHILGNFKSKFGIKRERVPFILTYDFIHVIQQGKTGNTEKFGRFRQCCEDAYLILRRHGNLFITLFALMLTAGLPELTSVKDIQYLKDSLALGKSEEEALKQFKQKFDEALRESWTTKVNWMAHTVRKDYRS
Sequence of PIK3CG (human) (P48736 whole entry, looked up): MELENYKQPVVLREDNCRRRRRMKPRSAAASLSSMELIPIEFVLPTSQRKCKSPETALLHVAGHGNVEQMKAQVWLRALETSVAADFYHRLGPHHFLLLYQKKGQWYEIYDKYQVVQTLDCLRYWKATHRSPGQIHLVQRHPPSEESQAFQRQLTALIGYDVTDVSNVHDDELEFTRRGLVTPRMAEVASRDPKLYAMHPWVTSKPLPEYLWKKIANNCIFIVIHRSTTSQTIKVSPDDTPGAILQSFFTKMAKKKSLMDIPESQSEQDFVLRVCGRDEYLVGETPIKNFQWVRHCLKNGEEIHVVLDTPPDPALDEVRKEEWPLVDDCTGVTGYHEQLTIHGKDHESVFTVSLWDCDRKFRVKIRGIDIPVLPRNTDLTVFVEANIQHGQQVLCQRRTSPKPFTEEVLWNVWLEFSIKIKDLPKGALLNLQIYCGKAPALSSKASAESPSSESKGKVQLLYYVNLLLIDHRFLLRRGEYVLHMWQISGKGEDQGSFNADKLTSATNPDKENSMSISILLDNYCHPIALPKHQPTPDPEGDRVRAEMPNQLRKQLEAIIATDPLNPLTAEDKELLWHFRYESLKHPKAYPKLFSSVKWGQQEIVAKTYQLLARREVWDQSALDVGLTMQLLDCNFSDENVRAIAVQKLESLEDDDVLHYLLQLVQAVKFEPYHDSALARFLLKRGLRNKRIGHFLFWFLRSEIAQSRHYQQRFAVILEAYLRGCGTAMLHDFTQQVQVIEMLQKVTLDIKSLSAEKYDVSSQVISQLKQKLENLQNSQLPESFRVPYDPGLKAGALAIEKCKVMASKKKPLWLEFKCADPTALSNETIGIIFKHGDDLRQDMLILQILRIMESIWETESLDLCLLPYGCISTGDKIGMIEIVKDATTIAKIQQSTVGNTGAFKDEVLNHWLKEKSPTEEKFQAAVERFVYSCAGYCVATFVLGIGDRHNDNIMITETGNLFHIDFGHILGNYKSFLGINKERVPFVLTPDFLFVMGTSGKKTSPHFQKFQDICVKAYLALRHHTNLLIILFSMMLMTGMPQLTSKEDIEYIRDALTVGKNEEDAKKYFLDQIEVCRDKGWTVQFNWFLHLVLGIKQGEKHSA
Sequence of PIK3CA (human) (P42336 whole entry, looked up): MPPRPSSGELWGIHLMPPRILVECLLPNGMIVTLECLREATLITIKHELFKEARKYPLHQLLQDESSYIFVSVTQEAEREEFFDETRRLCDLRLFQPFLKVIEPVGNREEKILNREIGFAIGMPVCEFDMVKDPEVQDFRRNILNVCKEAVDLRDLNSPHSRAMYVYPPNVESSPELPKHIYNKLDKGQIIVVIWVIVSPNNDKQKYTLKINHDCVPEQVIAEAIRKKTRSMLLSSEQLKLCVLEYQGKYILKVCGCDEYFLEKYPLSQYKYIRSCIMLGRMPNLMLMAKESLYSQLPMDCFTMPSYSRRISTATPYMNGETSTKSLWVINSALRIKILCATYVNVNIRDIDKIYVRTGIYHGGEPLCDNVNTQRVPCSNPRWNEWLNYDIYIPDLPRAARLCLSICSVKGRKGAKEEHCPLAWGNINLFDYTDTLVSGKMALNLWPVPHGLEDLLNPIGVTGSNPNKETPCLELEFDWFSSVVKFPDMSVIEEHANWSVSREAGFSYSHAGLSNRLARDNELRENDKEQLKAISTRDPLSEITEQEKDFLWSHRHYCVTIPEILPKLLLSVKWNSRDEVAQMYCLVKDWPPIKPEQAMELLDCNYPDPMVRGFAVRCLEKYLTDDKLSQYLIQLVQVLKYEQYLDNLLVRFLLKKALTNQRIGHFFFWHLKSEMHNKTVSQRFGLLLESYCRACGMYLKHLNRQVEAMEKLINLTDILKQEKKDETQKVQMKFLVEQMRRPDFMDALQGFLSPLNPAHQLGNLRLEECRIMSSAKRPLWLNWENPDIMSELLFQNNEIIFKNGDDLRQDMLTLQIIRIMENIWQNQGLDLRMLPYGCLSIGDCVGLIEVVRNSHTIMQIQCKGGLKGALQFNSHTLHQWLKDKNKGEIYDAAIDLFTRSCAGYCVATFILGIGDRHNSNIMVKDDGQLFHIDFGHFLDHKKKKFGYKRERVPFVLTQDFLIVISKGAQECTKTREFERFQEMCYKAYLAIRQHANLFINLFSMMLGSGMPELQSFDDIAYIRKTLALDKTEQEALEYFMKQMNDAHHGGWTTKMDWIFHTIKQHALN

Molecule `COC(=O)Nc1ccc(-c2nc(N3CCOCC3)c3cnn(C4CCN(Cc5cccnc5)CC4)c3n2)cc1` had an IC50 in assay [1] of 3110 nM.
Same read-out and setting: in the case of `COC(=O)Nc1ccc(-c2nc(N3CCOCC3)c3cnn(C4CCN(C(=O)OC)CC4)c3n2)cc1` it was 7370 nM; in that of `COc1ncc(-c2ccc3nccc(-c4ccnnc4)c3c2)cc1NS(=O)(=O)c1ccc(F)cc1F`, 0.06 nM.
Regarding `COc1ccc(-c2ccc3c(N4CCOC[C@@H]4C)nc(N4CCOC[C@@H]4C)nc3n2)cc1CO`, the IC50 in assay [2] was 3590 nM; in assay [3] it was 18900 nM; in assay [4], 3200 nM; in assay [1] it was above 14800 nM.
As to `c1cncc(CN2CCC(n3ncc4c(N5CCOCC5)nc(-c5ccc6[nH]ccc6c5)nc43)CC2)c1`, the IC50 in assay [1] worked out at 8450 nM.
Take `CNC(=O)Nc1ccc(-c2nc(N3CC4CCC(C3)O4)c3cnn(C4CCC5(CC4)OCCO5)c3n2)cc1`: the IC50 in assay [3] and in assay [1] was above 10000 nM in each case.
Take `CCC(NC(=O)C(CC(=O)O)NC(=O)CNC(=O)C(CCCN=C(N)N)NC(=O)CCC(=O)O[N+]1(c2cc(=O)c3cccc(-c4ccccc4)c3o2)CCOCC1)C(=O)[O-]` (stereo not given): the IC50 worked out at 356 nM in assay [2], 736 nM in assay [3], 3220 nM in assay [4] and 1770 nM in assay [1].
Regarding `CN1CCN(Cc2cc3nc(-c4cccc(O)c4)nc(N4CCOCC4)c3s2)CC1`, the IC50 was found to be 35 nM in assay [3], 4 nM in assay [4] and 331 nM in assay [1].
The corresponding values for `OCCN1CCN(Cc2cc3nc(-c4cccc(O)c4)nc(N4CCOCC4)c3s2)CC1` are 63 nM, 8 nM and 672 nM.
